Legend:
[1] = Inhibition of N-type calcium channel alpha1B/alpha2delta-1/beta1b assessed as inhibition of KCl-induced calcium mobilization by FDSS
Liver microsomes [2] = experiment: (§1) Metabolic stability in rat liver microsomes assessed as compound remaining after 10 mins; type: ADME, Microsome; settings: microsomes, 10 min
Liver microsomes [3] = experiment: (§2) Metabolic stability in human liver microsomes assessed as compound remaining after 10 mins; type: ADME, Microsome; settings: microsomes, 10 min
[4] = as §1; type: ADME, Microsome; settings: liver microsomes, read-out: Stability
[5] = as §2; type: ADME, Microsome; settings: liver microsomes, read-out: Stability
[6] = Inhibition of N-type calcium channel alpha1B/alpha2delta-1/beta1b by patch clamp analysis
[7] = Oral bioavailability in Sprague-Dawley rat at 10 mg/kg; type: ADME, organism-based; settings: in vivo
Rattus norvegicus [8] = experiment: Antiinflammatory activity in ip dosed Sprague-Dawley rat assessed as reversal of carrageenan-induced thermal hypersensitivity administered 1 hr before carrageenan challenge; type: functional, organism-based
[9] = Cmax in Sprague-Dawley rat at 10 mg/kg, po; type: ADME, organism-based; design: dose 10 mg/kg, route oral; settings: in vivo
Rattus norvegicus [10] = experiment: Antiinflammatory activity in Sprague-Dawley rat assessed as reversal of carrageenan-induced thermal hypersensitivity at 30 mg/kg, ip administered 1 hr before carrageenan challenge relative to control; type: functional; settings: route intraperitoneal
Rattus norvegicus [11] = species: Rattus norvegicus; experiment: Ex vivo inhibition of rat N-type calcium channel assessed as inhibition of KCl-stimulated CGRP release at 1 uM by ELISA in presence of conotoxin GVIA; type: functional
Plasma = experiment: Plasma concentration in Sprague-Dawley rat at 30 mg/kg, ip; type: ADME, organism-based; design: dose 30 mg/kg, route intraperitoneal; settings: in vivo
[12] = Clearance in Sprague-Dawley rat at 2 mg/kg, iv; type: ADME, organism-based; design: dose 2 mg/kg, route intravenous; settings: in vivo
[13] = Tmax in Sprague-Dawley rat at 10 mg/kg, po; type: ADME, organism-based; design: dose 10 mg/kg, route oral; settings: in vivo
Rattus norvegicus [14] = experiment: Antiallodynic activity in Sprague-Dawley rat chronic constriction injury-induced neuropathic pain model assessed as attenuation of CCl-induced cold allodynia at 30 mg/kg, ip measured at 1 to 4 hrs; type: functional; settings: route intraperitoneal
[15] = Inhibition of L-type calcium channel at 5 uM
[16] = Half life in Sprague-Dawley rat at 2 mg/kg, iv; type: ADME, organism-based; design: dose 2 mg/kg, route intravenous; settings: in vivo

CS(=O)(=O)N1CCC(c2cc(-c3ccc(Cl)cc3)n(-c3ccccc3N)n2)CC1
IC50 [1]: > 300 nM

COc1ccccc1-n1nc(C2CCN(S(=O)(=O)N(C)C)CC2)cc1-c1ccc(Cl)cc1
Stability (Liver microsomes [2]): Unstable | Stability (Liver microsomes [3]): Unstable | IC50 [1]: 11 nM

COc1ccccc1-n1nc(C2CCN(S(C)(=O)=O)CC2)cc1-c1cc2ccccc2o1
IC50 [1]: 400 nM

COc1ccccc1-n1nc(C2CCN(S(=O)(=O)C(C)C)CC2)cc1-c1ccc(Cl)cc1
remaining at 10 min [4]: 19% | remaining at 10 min [5]: 100% | IC50 [1]: 18 nM | IC50 [6]: 80 nM

COc1ccccc1-n1nc(C2CCN(C(C)=O)CC2)cc1-c1ccc(Cl)cc1
remaining at 10 min [4]: 7% | remaining at 10 min [5]: 59% | IC50 [1]: 17 nM

COc1ccccc1-n1nc(C2CCN(S(C)(=O)=O)CC2)cc1-c1ccc(OC(C)C)cc1
IC50 [1]: 250 nM

CC(C)Oc1ccccc1-n1nc(C2CCN(S(C)(=O)=O)CC2)cc1-c1ccc(Cl)cc1
remaining at 10 min [4]: 5% | remaining at 10 min [5]: 18% | IC50 [1]: 5 nM

CN(C)c1ccccc1-n1nc(C2CCN(S(C)(=O)=O)CC2)cc1-c1ccc(Cl)cc1
IC50 [1]: 13 nM

COc1ccccc1-n1nc(C2CCN(S(C)(=O)=O)CC2)cc1-c1ccc(Cl)c(C#N)c1
IC50 [1]: 95 nM

COc1ccccc1-n1nc(C2CCN(S(C)(=O)=O)CC2)cc1-c1ccc(N(C)C)cc1
IC50 [1]: 61 nM

COc1ccccc1-n1nc(C2CCN(S(C)(=O)=O)CC2)cc1-c1ccc(Cl)cc1
bioavailability [7]: 42.5% | Activity (Rattus norvegicus [8]): Dose-dependent effect | remaining at 10 min [4]: 45% | Cmax [9]: 1.5 µM | remaining at 10 min [5]: 86% | IC50 [1]: 27 nM | Activity (Rattus norvegicus [10]): 82% | IC50 [6]: 200 nM | inhibition (INH) (Rattus norvegicus [11]): 91% | concentration (Plasma): 8.32 µM | clearance [12]: 26 mL/min/kg | Tmax [13]: 0.9 h | inhibition in vivo at 30 mg/kg (Rattus norvegicus [14]): 41% | inhibition [15]: 52% | half-life [16]: 1.5 h

COc1ccccc1-n1nc(C2CCN(S(=O)(=O)CC(F)(F)F)CC2)cc1-c1ccc(Cl)cc1
remaining at 10 min [4]: 33% | remaining at 10 min [5]: 100% | IC50 [1]: 26 nM

COc1ccccc1-n1nc(C2CCN(S(=O)(=O)C(F)(F)F)CC2)cc1-c1ccc(Cl)cc1
remaining at 10 min [4]: 100% | remaining at 10 min [5]: 98% | IC50 [1]: 16 nM

COc1ccccc1-n1nc(C2CCN(S(C)(=O)=O)CC2)cc1-c1ccc(Cl)cc1Cl
IC50 [1]: 15 nM

COc1ccccc1-n1nc(C2CCN(S(C)(=O)=O)CC2)cc1C1CCC(C)(C)CC1
IC50 [1]: 140 nM

COc1ccccc1-n1nc(C2CCN(S(C)(=O)=O)CC2)cc1-c1ccc2c(ccn2C)c1
IC50 [1]: 68 nM

COc1ccccc1-n1nc(C2CCN(S(C)(=O)=O)CC2)cc1-c1ccc(C(C)(C)C)cc1
IC50 [1]: 29 nM

COc1ccccc1-n1nc(C2CCN(S(C)(=O)=O)CC2)cc1-c1ccc(F)cc1
IC50 [1]: 98 nM

CCS(=O)(=O)N1CCC(c2cc(-c3ccc(Cl)cc3)n(-c3ccccc3OC)n2)CC1
remaining at 10 min [4]: 22% | Stability (Liver microsomes [3]): Unstable | IC50 [1]: 35 nM

COc1ccccc1-n1nc(C2CCN(S(C)(=O)=O)CC2)cc1-c1ccc(Cl)c(C(F)(F)F)c1
IC50 [1]: 100 nM

OCCCc1cc(-c2ccc(Cl)cc2)n(-c2ccccc2)n1
IC50 [1]: 1200 nM

COc1ccccc1-n1nc(C2CCN(S(C)(=O)=O)CC2)cc1-c1ccc(Cl)s1
IC50 [1]: 93 nM

CNc1ccc(-c2cc(C3CCN(S(C)(=O)=O)CC3)nn2-c2ccccc2OC)cc1
IC50 [1]: 200 nM

COc1ccccc1-n1nc(C2CCN(S(C)(=O)=O)CC2)cc1-c1ccc(C#N)cc1
IC50 [1]: 170 nM

COc1ccccc1-n1nc(C2CCN(S(C)(=O)=O)CC2)cc1C1=CCC(C)(C)CC1
IC50 [1]: 49 nM

COc1ccccc1-n1nc(CCCO)cc1-c1ccc(Cl)cc1
remaining at 10 min [4]: 14% | IC50 [1]: 97 nM

COc1c(Cl)cccc1-n1nc(C2CCN(S(C)(=O)=O)CC2)cc1-c1ccc(Cl)cc1
IC50 [1]: 170 nM

Source: ChEMBL document CHEMBL2029231, “A novel series of pyrazolylpiperidine N-type calcium channel blockers” (Bioorg Med Chem Lett, 2012)
